Test results from patent US20240050526A1, “CATH2 DERIVATIVES FOR STIMULATING INNATE IMMUNE MEMORY” (priority 2020, published 2024).
Square brackets hold non-standard residues; d marks the D form. Ends that are not written are not given here.

Columns and labels:
avian pathogenic E. coli = details: prophylactic in ovo injection of chicken embryos; cited from earlier work
[1] = system: Salmonella enteritidis 706; assay: Antibacterial activity (intracellular killing) of DCATH-2 primed dTHP-1 cells; assay type: cell-based, Salmonella enterica subsp. enterica serovar enteritidis; details: 24 h DCATH-2 training; colonies after 24 h
Experimental: Antibacterial activity was determined according to Tang et al.. dTHP-1 cells were seeded in 6 well plates and primed with DCATH-2 or medium as described. Log-phase culture of Salmonella enterica subsp. enterica serovar enteritidis 706 (Se706) was added to each well at a MOI of 1. After 2 h incubation at 37° C., cells were washed twice with warm DPBS and further incubated for 1 h incubation at 37° C. with IMDM/FCS medium containing 300 μg/ml colistin. After incubation, cells were washed 3 times in DPBS and the lysed with 1% triton X-100. Well contents were serially diluted in tryptone soy broth (Oxoid), plated on tryptone soy agar and counted after 24 h at 37° C.

dTHP-1 cells [2] = assay: Innate immune training of dTHP-1 cells by cathelicidin peptides, cytokine ELISA after TLR agonist re-stimulation; assay type: cell-based, human
Experimental: THP-1 cells were cultured in Iscove Modified Dulbecco Media (IMDM, Gibco) containing Glutamax-I, sodium pyruvate, 10% fetal calf serum at 37° C. and 5% CO2. For differentiation to macrophage-like cells, THP-1 cells were grown in IMDM/FCS medium containing 8 of 100 nM PMA and seeded in 96 wells (5×10^4 cells/well), 24 wells (3×10^5 cells/well) or 6 wells plates (1×10^6 cells/well) during 48 h. Subsequently, dTHP-1 were washed with pre-warmed IMDM/FCS, left overnight to rest and primed during 1 to 24 h with 2-10 μM peptides of fresh IMDM/FCS medium, washed 3 times in medium. After 3 days rest cells were stimulated with various stimuli: S. minnesota LPS (10 ng/ml), E. coli LPS (10 or 50 ng/ml), Pam3CSK4 (1 μg/ml) or Pam2CSK4 (1 μg/ml). After 24 h supernatants were collected and stored at −20° C. For inhibition, dTHP-1 cells were pre-incubated for 1 h before priming and during priming with rapamycin (10 nM), AICAR (50 nM), metformin (0.3 mM), wortmannin (1 μM), ascorbate (50 μM), SB203580 (10 μM), PD98059 (10 μM), SP600125 (10 μM), EGCG (40 μM), anacardic acid (50 μM), curcumin (10 μM), garcinol (10 μM), Bay-11-7085 (10 μM), MTA (1 mM), MM-102 (25 μM), suramin (50 μM), KN-62 (3 μM), nystatin (10 μg/ml), and chlorpromazine (10 μM).
TNFα, IL-6, CXCL10 and CCL5 production were measured using ELISA (R&D systems) following instructions of the manufacturer.
Extrapolating from the trained immunity experiments with human monocytes, we examined if mature cathelicidin peptides could induce trained immunity in TH P-1 cells, a human monocyte cell line. TH P-1 cells were differentiated with 100 nM or 8 nM phorbol 12-myristate 13-acetate (PMA) during 48 h washed 3 times and, after overnight rest, primed with 2-10 μM of chicken cathelicidin 2 (CATH-2), its full D-analog DCATH-2 or human cathelicidin LL-37 for 24 h. Subsequently, dTHP-1 cells were washed 3 times and re-stimulated after a 3-day rest period with TLR agonists (24 h) (FIG. 1a). […] Priming with 5 μM of its full-D-amino acid analog DCATH-2 amplified 2- to 3-fold the TNFα and IL-6 production in response to LPS stimulation. A minor response was found for priming with 10 μM LL-37, which amplified IL-6 production 1.4-fold in 100 nM differentiated cells.

dTHP-1 cells [3] = assay: Metabolomics of DCATH-2 trained dTHP-1 cells; assay type: cell-based, human
Experimental: dTHP-1 cells were seeded (1×10^6 cells/well) in 6 wells plates and primed during 24 h with 5 μM DCATH-2 as described using medium as control. Cell supernatants, cell lysates and medium controls were collected before and after 24 h priming in the absence and presence of 10 nM rapamycin, after washing followed by 3 days rest and after subsequent 24 h LPS (E. coli O111:B4) stimulation. For sample collections, cells were washed once in ice-cold PBS, lysed with by adding 1 ml cold methanol/acetonitrile/water (2:2:1) lysis buffer, scraped and transferred in to vials. Cell supernatants and medium control samples (10 μl) were directly mixed with 200 μl lysis buffer. Samples were shaken for 10 min at 4° C. and centrifuged for 15 min at 18,000×g and 4° C. Supernatants were flash frozen in liquid nitrogen and stored at −80° C. for analysis. Liquid chromatography-mass spectrometry analysis was performed using an Exactive mass spectrometer (Thermo Scientific), coupled to a Dionex Ultimate 3000 auto sampler and pump (Thermo Scientific). The mass spectrometry operated in polarity-switching mode with spray voltages of 4.5 and −3.5 kV. Metabolites were separated using a Sequant ZIC-pHILIC column (2.1×150 mm, […], guard column 2.1×20 mm, […]; Merck) using a linear gradient of acetonitrile and eluent A 20 mM (NH4)2CO3, 0.1% NH40H in ULC/MS grade water (Biosolve BV, Valkenswaard, The Netherlands) and a flow rate of 150 μl/min. Metabolites were identified and peak intensities quantified using LCquan software (Thermo Scientific) on the basis of exact mass within 5 ppm and further validated by concordance with retention times of commercially available standards. Peak intensities were normalized on cell counts of parallel wells before and after LPS stimulation.

[4] = system: Candida albicans ATCC10231; assay: Candidacidal activity of DCATH-2 primed dTHP-1 cells; assay type: cell-based; details: 24 h DCATH-2 training; colonies after 48 h
Experimental: dTHP-1 cells were seeded in 6 well plates and primed with DCATH-2 or medium as described. Candida albicans ATCC10231 was grown in yeast malt broth (Oxoid) at 30° C., diluted in DPBS to 1×10^4 CFU/ml and added to each well (MOI of 0.03). After 5 h incubation at 30° C., supernatants were transferred and kept. The remaining cells were supplemented with 0.5 ml of sterile water, mixed vigorously and combined with their corresponding well supernatants. Serial dilutions prepared in yeast malt broth were plated onto yeast malt agar. Colonies were counted after 48 h at 30° C.

Salmonella enterica = details: injected into the yolk of zebrafish embryos, intravenous infection; cited from earlier work
[5] = 5 μM, 24 h priming, 3 days rest
[6] = after 24 h E. coli LPS stimulation

In the case of “rfgrflrkirrfrpkvtitiqgsarf-NH2 ([dR][dF]G[dR][dF][dL][dR][dK][dI][dR][dR][dF][dR][dP][dK][dV][dT][dI][dT][dI][dQ]G[dS][dA][dR][dF]-NH2; N-terminus assumed; SMILES CC[C@@H](C)[C@@H](NC(=O)[C@@H](CCCCN)NC(=O)[C@@H](CCCNC(=N)N)NC(=O)[C@@H](CC(C)C)NC(=O)[C@@H](Cc1ccccc1)NC(=O)[C@@H](CCCNC(=N)N)NC(=O)CNC(=O)[C@@H](Cc1ccccc1)NC(=O)[C@H](N)CCCNC(=N)N)C(=O)N[C@H](CCCNC(=N)N)C(=O)N[C@H](CCCNC(=N)N)C(=O)N[C@H](Cc1ccccc1)C(=O)N[C@H](CCCNC(=N)N)C(=O)N1CCC[C@@H]1C(=O)N[C@H](CCCCN)C(=O)N[C@@H](C(=O)N[C@@H](C(=O)N[C@@H](C(=O)N[C@@H](C(=O)N[C@@H](C(=O)N[C@H](CCC(N)=O)C(=O)NCC(=O)N[C@H](CO)C(=O)N[C@H](C)C(=O)N[C@H](CCCNC(=N)N)C(=O)N[C@H](Cc1ccccc1)C(N)=O)[C@H](C)CC)[C@H](C)O)[C@H](C)CC)[C@H](C)O)C(C)C) [DCATH-2, full D-amino acid analog of CATH-2]”, the “colibacilossis-associated mortality and morbidity” value (avian pathogenic E. coli) is given as “considerably reduced”, the “inhibition of outgrowth of Salmonella enteritidis vs non-primed dTHP-1 cells” value [1] is given as 78±11% and the “TNFα and IL-6 production after re-stimulation with TLR2 and TLR4 ligands” value (dTHP-1 cells [2]; 5 μM, re-stimulation with E. coli O111:B4 LPS, Pam3CSK4 or Pam2CSK4) is given as “amplified”. The “production of CCL5 and CXCL10” value (dTHP-1 cells [2]; 5 μM, re-stimulation with TLR2 and TLR4 agonists) was “not altered”, the “basal production levels of TNFα and IL-6” value (dTHP-1 cells [2]; 24 h priming (2.5-5 μM DCATH-2), 3 days rest, no re-stimulation) was “not altered” and the “priming time reaching highest level of training” value (dTHP-1 cells [2]; TNFα amplification, re-stimulation with 1 μg/ml Pam3CSK4) was 24 h. The “TCA cycle and urea cycle” value (dTHP-1 cells [3]; [5]) was “not significantly affected”, the “de novo pyrimidine synthesis” value (dTHP-1 cells [3]; [5]) was “increased” and the “glycolysis (metabolic intermediates)” value (dTHP-1 cells [3]; [5]) was “increased”. The intracellular glucose concentrations (dTHP-1 cells [3]; [5]) was “lower”, the intracellular lactate levels (dTHP-1 cells [3]; [5]) was “higher” and the “lactate secretion into the medium” value (dTHP-1 cells [3]; [5]) was “augmented”. The “levels of intracellular medium-chain and long-chain acylcarnitines” value (dTHP-1 cells [3]; [5]) was “dramatically increased”, the “usage of amino acids” value (dTHP-1 cells [3]; [5]) was “overall enhanced usage” and the “TCA cycle, urea cycle or amino acid metabolism” value (dTHP-1 cells [3]; LPS stimulation of trained cells) was “did not affect”. The “intracellular levels of medium-chain and long-chain acylcarnitines” value (dTHP-1 cells [3]; [6]) was “remained elevated”, the “training induced metabolic shift during LPS stimulation” value (dTHP-1 cells [3]; [6]) was “maintained” and the “inhibition of outgrowth of Candida albicans vs non-primed dTHP-1 cells” value [4] was 68±10%. The “mortality after lethal dose of Salmonella enterica” value (Salmonella enterica) was “delayed mortality”.
